Where two headings read alike, the source gives them in different places.
What was measured:
hTRPC5 = target: T1, hTRPC5 (Homo sapiens, UniProt Q9UL62); experiment: Patch clamp selectivity, hTRPC5; format: cell-based
T1 sequence (Q9UL62 1-973): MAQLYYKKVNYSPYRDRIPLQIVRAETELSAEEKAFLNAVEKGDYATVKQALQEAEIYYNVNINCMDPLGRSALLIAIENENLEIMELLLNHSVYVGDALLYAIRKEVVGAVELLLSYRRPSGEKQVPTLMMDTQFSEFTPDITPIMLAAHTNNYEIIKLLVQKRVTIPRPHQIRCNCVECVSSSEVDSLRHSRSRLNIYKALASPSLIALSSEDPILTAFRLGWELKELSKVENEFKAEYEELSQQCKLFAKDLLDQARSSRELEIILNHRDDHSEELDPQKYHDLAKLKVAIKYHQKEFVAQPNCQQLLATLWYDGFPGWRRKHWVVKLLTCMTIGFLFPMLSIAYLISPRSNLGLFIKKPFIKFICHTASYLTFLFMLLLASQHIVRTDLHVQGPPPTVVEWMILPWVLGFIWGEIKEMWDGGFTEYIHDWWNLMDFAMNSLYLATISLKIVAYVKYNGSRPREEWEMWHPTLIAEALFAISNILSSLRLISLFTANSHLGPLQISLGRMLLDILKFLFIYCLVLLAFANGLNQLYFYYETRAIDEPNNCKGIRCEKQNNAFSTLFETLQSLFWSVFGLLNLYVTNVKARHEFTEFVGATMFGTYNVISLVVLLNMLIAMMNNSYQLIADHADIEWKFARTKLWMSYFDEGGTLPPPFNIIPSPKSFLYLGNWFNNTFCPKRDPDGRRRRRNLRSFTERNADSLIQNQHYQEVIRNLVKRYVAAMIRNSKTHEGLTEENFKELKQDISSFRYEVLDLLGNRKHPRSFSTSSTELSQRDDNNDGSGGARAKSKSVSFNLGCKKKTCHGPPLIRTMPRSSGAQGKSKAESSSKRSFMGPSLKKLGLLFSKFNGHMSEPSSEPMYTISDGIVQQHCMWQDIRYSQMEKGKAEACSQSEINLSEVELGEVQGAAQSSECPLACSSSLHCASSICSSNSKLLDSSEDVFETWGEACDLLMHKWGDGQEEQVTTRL
Experimental: (§1) Data for TRPA1 inhibition and the selectivity of TRPA1 inhibition was obtained by this method for the compound of Formula (Ia) and included in Table 1 and Table 2. All currents were recorded in whole-cell configuration using EPC-9 and EPC-10 amplifiers and Patchmaster software (HEKA). […] The standard pipette solution consisted of 140 mM CsAsp, 10 mM EGTA, 10 mM HEPES, 2.27 mM MgCl2, 1.91 mM CaCl2, 4 mM MgATP, and 0.1-0.3 mM Na2GTP, with pH adjusted to 7.2 with CsOH. In addition, a solution containing 145 mM CsCl, 10 mM HEPES, 10 mM EGTA and 1 mM MgCl2 (pH 7.2 adjusted with CsOH) can be used. The standard bath solution contained 150 mM NaCl, 10 mM HEPES, 10 mM glucose, 4.5 mM KCl, 1 mM EGTA, 3 mM MgCl2, with pH adjusted to 7.4 with NaOH. In some instances, 2 mM CaCl2 was added in place of EGTA and the concentration of MgCl2 was reduced to 1 mM.
(§2) Data were collected either by continuous recordings at −60 mV or by applying voltage ramps from a holding potential of 0 mV every 4 s. […] Inward and outward currents were analyzed from the ramps at −80 and 80 mV, respectively. […]
(§3) Solutions were switched using a gravity-fed continuous focal perfusion system. […] Temperatures were confirmed using a thermistor (Warner Instruments, TA-29), with temperatures at the recorded cell estimated to be within +/−2° C. of those reported. […]

[1] = system: CFA-induced cold allodynia; experiment: Complete Freund's Adjuvant (CFA) cold allodynia rodent pain model; format: in vivo; settings: vehicle 19.8
Experimental: The compound of Formula (Ia) is also active in rodent models of pain in vivo induced by cold allodynia following chronic Complete Freund's Adjuvant-induced inflammation, as described in Example 6. […] The compound of Formula (Ia), the comparator compound of Formula (II) and ketoprofen were tested by the CFA-induced pain test method reported in del Camino et al., J. Neurosci., 30(45):15165-15174, incorporated herein by reference in its entirety. Briefly, the hind paw was sensitized to cold temperature (allodynic), by administering 0.1 mL of Complete Freund's Adjuvant (CFA) to the left hind paw. 2-3 days later, the time taken for the animal to lift its CFA-injected paw was recorded compared to its un-injected normal right hind paw. […] To avoid tissue damage the maximum cut-off time was 5 minutes. Animals that were allodynic (average PWL to the first three pain behaviors <150 seconds for the CFA-injected hind paw: ˜≧50% difference between the normal and CFA-injected paw) were included in the study and subsequently randomized across treatment groups. The following day, the animals were dosed under blinded conditions. Following the 1-2 hour pre-treatment time, the post-dose PWL readings were again taken. The efficacy of the drug treatment was assessed by comparing the PWL in the drug treatment animals to those animals that received the vehicle.

hTRPV1 = hTRPV1 (Homo sapiens, UniProt Q8NER1); experiment: Patch clamp selectivity, hTRPV1; format: cell-based
Experimental: as §1, §2, §3

rTRPA1 = rTRPA1 (Rattus norvegicus, UniProt Q6RI86); experiment: Whole-cell patch clamp block of inward current through rTRPA1; format: cell-based
Experimental: as §1
Data were collected either by continuous recordings at −60 mV or by applying voltage ramps from a holding potential of 0 mV every 4 s. Continuous recordings were collected at 400 Hz and digitally filtered off-line at 10 Hz for presentation. Voltage ramps were applied from −100 mV to 100 mV over the course of 400 ms, and data were collected at 10 kHz and filtered at 2.9 kHz. Inward and outward currents were analyzed from the ramps at −80 and 80 mV, respectively. Liquid junction potential correction was not used.
Solutions were switched using a gravity-fed continuous focal perfusion system. To achieve rapid temperature changes, two temperature control and perfusion systems were employed simultaneously. For temperatures ≧22° C., a Warner Instruments bipolar temperature controller (TC-344B) and inline heater (SHM-8) were used. […] Temperatures were confirmed using a thermistor (Warner Instruments, TA-29), with temperatures at the recorded cell estimated to be within +/−2° C. of those reported.
IC50 of compounds was estimated by testing each compound at 5 micromolar and 500 nanomolar. […] IC50 for compounds between 500 nanomolar and 5 micromolar was similarly estimated. […]

hTRPV1, sequence (Q8NER1 whole entry): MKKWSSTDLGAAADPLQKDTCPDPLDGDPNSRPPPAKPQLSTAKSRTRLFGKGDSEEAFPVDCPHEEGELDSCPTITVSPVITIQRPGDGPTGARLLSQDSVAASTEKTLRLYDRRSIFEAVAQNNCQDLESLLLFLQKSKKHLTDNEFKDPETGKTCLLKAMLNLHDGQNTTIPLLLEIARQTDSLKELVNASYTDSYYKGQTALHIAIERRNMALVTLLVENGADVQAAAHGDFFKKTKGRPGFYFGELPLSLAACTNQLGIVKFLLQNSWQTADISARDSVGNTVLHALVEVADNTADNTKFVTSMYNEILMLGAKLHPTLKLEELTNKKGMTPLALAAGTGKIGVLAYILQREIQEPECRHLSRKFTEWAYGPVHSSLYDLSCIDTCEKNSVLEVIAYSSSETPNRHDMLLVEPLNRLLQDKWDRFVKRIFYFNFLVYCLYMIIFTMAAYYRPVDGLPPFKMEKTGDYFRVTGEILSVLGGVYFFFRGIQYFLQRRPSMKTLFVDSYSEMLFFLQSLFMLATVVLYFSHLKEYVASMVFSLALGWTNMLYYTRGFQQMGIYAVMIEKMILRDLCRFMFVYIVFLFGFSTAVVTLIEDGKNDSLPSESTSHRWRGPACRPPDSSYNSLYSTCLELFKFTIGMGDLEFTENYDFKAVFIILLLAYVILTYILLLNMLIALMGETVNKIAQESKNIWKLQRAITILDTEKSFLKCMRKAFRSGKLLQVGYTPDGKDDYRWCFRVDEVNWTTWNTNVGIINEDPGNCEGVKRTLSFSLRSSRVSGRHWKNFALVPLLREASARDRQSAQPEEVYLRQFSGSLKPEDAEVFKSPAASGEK
rTRPA1, sequence (Q6RI86 whole entry): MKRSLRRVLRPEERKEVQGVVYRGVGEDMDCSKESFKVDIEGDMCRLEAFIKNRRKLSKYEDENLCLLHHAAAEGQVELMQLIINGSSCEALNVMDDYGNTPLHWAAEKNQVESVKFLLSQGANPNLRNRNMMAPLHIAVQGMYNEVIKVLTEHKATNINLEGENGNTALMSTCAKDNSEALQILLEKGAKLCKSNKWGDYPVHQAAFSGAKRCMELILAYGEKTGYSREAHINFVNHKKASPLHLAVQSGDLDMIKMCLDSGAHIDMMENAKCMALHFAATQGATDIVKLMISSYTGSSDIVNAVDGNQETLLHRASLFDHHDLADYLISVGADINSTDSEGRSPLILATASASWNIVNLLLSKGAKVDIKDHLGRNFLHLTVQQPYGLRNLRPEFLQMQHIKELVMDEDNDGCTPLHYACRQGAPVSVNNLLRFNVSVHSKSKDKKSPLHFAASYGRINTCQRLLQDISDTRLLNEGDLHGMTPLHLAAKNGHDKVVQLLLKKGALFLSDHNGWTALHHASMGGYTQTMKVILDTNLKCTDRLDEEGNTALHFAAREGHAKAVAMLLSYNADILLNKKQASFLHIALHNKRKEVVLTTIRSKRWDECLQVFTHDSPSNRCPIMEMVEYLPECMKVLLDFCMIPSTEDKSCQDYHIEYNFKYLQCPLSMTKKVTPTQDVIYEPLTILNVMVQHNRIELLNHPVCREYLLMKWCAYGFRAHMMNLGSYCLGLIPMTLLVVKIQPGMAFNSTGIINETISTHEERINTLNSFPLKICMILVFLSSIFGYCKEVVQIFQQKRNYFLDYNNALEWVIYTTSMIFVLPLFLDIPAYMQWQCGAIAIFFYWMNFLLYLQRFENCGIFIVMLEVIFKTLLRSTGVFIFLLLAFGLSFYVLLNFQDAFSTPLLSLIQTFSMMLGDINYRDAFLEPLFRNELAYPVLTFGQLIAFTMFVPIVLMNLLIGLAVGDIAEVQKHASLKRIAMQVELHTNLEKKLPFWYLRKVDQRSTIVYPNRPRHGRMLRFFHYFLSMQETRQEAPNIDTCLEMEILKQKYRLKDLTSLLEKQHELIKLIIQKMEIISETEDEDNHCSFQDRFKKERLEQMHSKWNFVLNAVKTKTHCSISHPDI

`C[C@H]1CCCN1c1ncc(-c2cccc(NC(=O)Cn3cnc4c3c(=O)n(C)c(=O)n4C)n2)cn1` [Formula (Ia)] was tested, and the “Fold Selectivity Compared to TRPA1” value (hTRPC5) was over 100 fold, the IC50 (hTRPC5; 80 micromolar LaCl3, Inward (−80 mV)) was over 10000 nM and the “Change in Paw Withdrawal Latency” value ([1]; 1 mg/kg i.p., cold plate) was 38.4. The “Change in Paw Withdrawal Latency” value ([1]; 5 mg/kg i.p.) was 45.0, the “Change in Paw Withdrawal Latency” value ([1]; 10 mg/kg i.p.) was 117.6 and the “Change in Paw Withdrawal Latency” value ([1]; 30 mg/kg i.p.) was 134.4. The “Change in Paw Withdrawal Latency” value ([1]; 50 mg/kg i.p.) was 177.8, the “Fold Selectivity Compared to TRPA1” value (hTRPV1) was over 100 fold and the IC50 (hTRPV1; 500 nanomolar Capsaicin, Inward (−80 mV)) was over 10000 nM. The IC50 (rTRPA1; class symbol, read-out: Potency (IC50) Rat) was at least 100 nM and the IC50 (rTRPA1; rTRPA1, Rat, current activation 10 micromolar AITC, read-out: IC50 Inward current) was 101 ± 8 nM.
